Results on 33 compounds are retold here after patent US10654837B2, “Sulphamoylaryl derivatives and use thereof as medicaments for the treatment of liver fibrosis” (Janssen Pharmaceutica NV, priority 2017, dated 2020).

The assay deals with T1, 5HTR2B (Homo sapiens, UniProt P41595).
T1 construct: host or cells: human Maverick/293 cells
Briefly: 5HTR2B antagonist activity, calcium mobilization assay in human Maverick/293 cells (serotonin as agonist). The following applies: intracellular calcium, emission 525 nm, read-out: Ca assay IC50. In kind it is cell-based. As for the experimental part: The 5HTR2B antagonist activity was measured using human Maverick/293 cells in a calcium mobilization assay. The measurement starting with plating human Maverick/293 cells (log phase) onto 96-well black and incubate at 37° C. overnight, Followed by starving cells for 2 h by changing complete medium to DMEM without FBS, removing the medium from the 96-well plate. Loading staining calcium buffer into each well and incubated the plate at 37° C. for 50 min. After removal of staining calcium buffer, diluted antagonist were added into the well, incubate 15 to 30 minutes. Dispense serotonin as the 5HTR2B agonists into each well. Intracellular calcium concentration is recorded for 80 seconds by monitoring an emission at a wavelength of 525 nm with an excitation wavelength of 485 nm. Inhibition efficiency of the cell line was determined following the equation: % Inhibition=100%−(D−B)/(S−B)*100%. (S: The peak value in the presence of agonist serotonin; D: The peak value in the presence of different dilution compound or serotonin; B: The peak value in the presence of calcium HBSS buffer only). […] A dose response curve was fitted using nonlinear regression model with a sigmoidal dose response. The IC50 was automatically produced by GraphPad Prism 5.0.

T1 sequence (P41595 whole entry): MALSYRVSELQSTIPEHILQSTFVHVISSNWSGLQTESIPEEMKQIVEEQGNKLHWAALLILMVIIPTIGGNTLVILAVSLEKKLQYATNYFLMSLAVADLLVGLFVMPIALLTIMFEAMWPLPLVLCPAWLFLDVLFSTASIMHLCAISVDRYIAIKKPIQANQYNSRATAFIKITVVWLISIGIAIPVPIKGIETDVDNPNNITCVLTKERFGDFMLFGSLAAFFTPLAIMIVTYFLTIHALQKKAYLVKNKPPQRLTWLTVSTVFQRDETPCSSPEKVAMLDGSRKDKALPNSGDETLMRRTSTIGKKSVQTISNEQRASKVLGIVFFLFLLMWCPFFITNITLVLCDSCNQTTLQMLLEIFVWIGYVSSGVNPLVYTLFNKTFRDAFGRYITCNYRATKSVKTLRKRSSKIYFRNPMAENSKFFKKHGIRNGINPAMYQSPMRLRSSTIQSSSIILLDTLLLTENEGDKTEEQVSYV

`COc1ccc(S(=O)(=O)N[C@H]2C[C@@H](O)C2)cc1C(=O)Nc1cccc(C)c1Cl` [Compound 140b, N-(2-Chloro-3-methylphenyl)-5-(N-((cis)-3-hydroxycyclobutyl)sulfamoyl)-2-methoxybenzamide]: the IC50 was found to be 0.9 nM. On to `COc1ccc(S(=O)(=O)N[C@H]2C[C@@H](O)C2)cc1C(=O)Nc1ccc(F)c(C(F)F)c1` [Compound 142b, N-(3-(difluoromethyl)-4-fluorophenyl)-5-(N-((cis)-3-hydroxycyclobutyl)sulfamoyl)-2-methoxybenzamide], for which the concentration for half-maximal inhibition (IC50) was found to be 1.1 nM. As to `COc1ccc(S(=O)(=O)N[C@H]2C[C@@](C)(O)C2)cc1C(=O)Nc1ccc(F)c(C)n1` [Compound 31, N-(5-fluoro-6-methylpyridin-2-yl)-5-(N-((cis)-3-hydroxy-3-methylcyclobutyl)sulfamoyl)-2-methoxybenzamide], the IC50 was 55 nM. For the compound `COc1ccc(S(=O)(=O)N[C@H]2C[C@@H](O)C2)cc1C(=O)Nc1ccc(F)c(C)c1` [Compound 6b, N-(4-Fluoro-3-methylphenyl)-5-(N-((cis)-3-hydroxycyclobutyl)sulfamoyl)-2-methoxybenzamide], the IC50 was 1.9 nM.

On to `COc1ccc(S(=O)(=O)N[C@@H](C)CO)cc1C(=O)Nc1ccc(F)cc1` [Compound 52a, (S)—N-(4-fluorophenyl)-5-(N-(1-hydroxypropan-2-yl)sulfamoyl)-2-methoxybenzamide], for which the IC50 worked out at 50 nM.

As for `CNS(=O)(=O)c1ccc(OC)c(C(=O)Nc2ccc(F)c(C)n2)c1` [Compound 24], the IC50 stood at 47 nM.

Consider `COCC(C)NS(=O)(=O)c1ccc(OC)c(C(=O)Nc2ccc(F)c(C(F)F)c2)c1` (single isomer, unassigned) [Compound 32a, (R*)—N-(3-(Difluoromethyl)-4-fluorophenyl)-2-methoxy-5-(N-(1-methoxypropan-2-yl)sulfamoyl)benzamide], for which the IC50 is 1.8 nM. Under `COc1ccc(S(=O)(=O)N[C@H]2CCOC2)cc1C(=O)Nc1ccncn1` [Compound 165, (S)-2-Methoxy-N-(pyrimidin-4-yl)-5-(N-(tetrahydrofuran-3-yl)sulfamoyl) benzamide] stands 511 nM; under `COc1ccc(S(=O)(=O)N[C@@H]2CC[C@H](O)C2)cc1C(=O)Nc1ccc(F)c(C)c1` (single isomer, unassigned) [Compound 15b, N-(4-Fluoro-3-methylphenyl)-5-(N-((cis)-3-hydroxycyclopentyl)sulfamoyl)-2-methoxybenzamide], 1 nM; under `COc1ccc(S(N)(=O)=O)cc1C(=O)Nc1ccc(F)cc1F` [Compound 148, N-(2,4-Difluorophenyl)-2-methoxy-5-sulfamoylbenzamide], 161 nM.

In the case of `COc1ccc(S(=O)(=O)N[C@H]2C[C@@H](O)C2)cc1C(=O)Nc1ccc(F)c(C(F)F)n1` [Compound 174b, N-(6-(Difluoromethyl)-5-fluoropyridin-2-yl)-5-(N-((cis)-3-hydroxycyclobutyl)sulfamoyl)-2-methoxybenzamide], the concentration for half-maximal inhibition (IC50) was determined as 1.7 nM.

With `COc1ccc(S(=O)(=O)N[C@H]2CCNC2)cc1C(=O)Nc1ccc(Cl)cc1F` [Compound 185, (S)—N-(4-chloro-2-fluorophenyl)-2-methoxy-5-(N-(pyrrolidin-3-yl)sulfamoyl) benzamide], the IC50 was 0.8 nM. The figure for `COc1ccc(S(=O)(=O)N[C@H]2CCOC2)cc1C(=O)Nc1ncc(F)c(C)n1` [Compound 172, (S)—N-(5-fluoro-4-methylpyrimidin-2-yl)-2-methoxy-5-(N-(tetrahydrofuran-3-yl)sulfamoyl)benzamide] is 33 nM; for `COc1ccc(N(C)S(=O)(=O)C2CCOC2)cc1C(=O)Nc1ccc(F)c(C)c1` (single isomer, unassigned) [Compound 204b, (S*)—N-(4-Fluoro-3-methylphenyl)-2-methoxy-5-(N-methyltetrahydrofuran-3-sulfonamido)benzamide] it is 56 nM; for `COc1ccc(S(=O)(=O)N[C@H]2CCOC2)cc1C(=O)Nc1cccc(OC(F)F)c1` [Compound 107, (S)—N-(3-(Difluoromethoxy)phenyl)-2-methoxy-5-(N-(tetrahydrofuran-3-yl)sulfamoyl)benzamide] it is 27 nM. The figure for `COc1ccc(S(=O)(=O)N[C@H]2CCOC2)cc1C(=O)Nc1ccc(C#N)c(Cl)c1` [Compound 89, (S)—N-(3-Chloro-4-cyanophenyl)-2-methoxy-5-(N-(tetrahydrofuran-3-yl)sulfamoyl)benzamide] is 1950 nM.

For the compound `COc1ccc(S(=O)(=O)N[C@H](C)CO)cc1C(=O)Nc1ccc(F)c(C(F)F)c1` [Compound 35b, (R)—N-(3-(Difluoromethyl)-4-fluorophenyl)-5-(N-(1-hydroxypropan-2-yl)sulfamoyl)-2-methoxybenzamide], the IC50 was found to be 4.3 nM.

Regarding `COc1ccc(S(=O)(=O)N[C@@H](C)CO)cc1C(=O)Nc1ccccc1Cl` [Compound 55a, (S)—N-(2-Chlorophenyl)-5-(N-(1-hydroxypropan-2-yl)sulfamoyl)-2-methoxy benzamide], the IC50 stood at 0.3 nM. Under `COc1ccc(S(=O)(=O)N[C@H]2CCN(C)C2=O)cc1C(=O)Nc1ccccc1Cl` (single isomer, unassigned) [Compound 54a, (S*)—N-(2-Chlorophenyl)-2-methoxy-5-(1-methyl-2-oxopyrrolidin-3-yl) sulfamoyl)benzamide] stands 1.1 nM; under `COc1ccc(S(=O)(=O)N[C@H]2CCOC2)cc1C(=O)Nc1ncccc1Cl` [Compound 121, (S)—N-(3-Chloropyridin-2-yl)-2-methoxy-5-(N-(tetrahydrofuran-3-yl)sulfamoyl) benzamide], 3.8 nM. Under `COc1ccc(S(=O)(=O)N[C@H]2CCOC2)cc1C(=O)Nc1c(F)cccc1F` [Compound 105, (S)—N-(2,6-Difluorophenyl)-2-methoxy-5-(N-(tetrahydrofuran-3-yl)sulfamoyl) benzamide] stands 12 nM; under `COc1ccc(S(=O)(=O)NC(C)C(F)(F)F)cc1C(=O)Nc1ccc(F)c(C)n1` (single isomer, unassigned) [Compound 29b, (R*)—N-(5-Fluoro-6-methylpyridin-2-yl)-2-methoxy-5-(N-(1,1,1-trifluoropropan-2-yl)sulfamoyl)benzamide], 4.6 nM; under `COc1ccc(S(=O)(=O)N[C@H]2C[C@@H](O)C2)cc1C(=O)Nc1ccc(F)cc1F` [Compound 145b, N-(2,4-difluorophenyl)-5-(N-((cis)-3-hydroxycyclobutyl)sulfamoyl)-2-methoxybenzamide], 1 nM. Under `COc1ccc(S(=O)(=O)NC(C)CC#N)cc1C(=O)Nc1ccc(F)c(C)c1` (single isomer, unassigned) [Compound 11a, (S*)-5-(N-(1-Cyanopropan-2-yl)sulfamoyl)-N-(4-fluoro-3-methylphenyl)-2-methoxybenzamide] stands 68 nM. As for `COc1ccc(S(=O)(=O)N[C@H]2CCOC2)cc1C(=O)Nc1ccc(Cl)cc1` [Compound 108, (S)—N-(4-Chlorophenyl)-2-methoxy-5-(N-(tetrahydrofuran-3-yl)sulfamoyl) benzamide], the IC50 came to 5.5 nM.

For `COc1ccc(S(=O)(=O)N[C@H]2CCCOC2)cc1C(=O)Nc1ccc(F)cc1` [Compound 41, (S)—N-(4-Fluorophenyl)-2-methoxy-5-(N-(tetrahydro-2H-pyran-3-yl)sulfamoyl) benzamide], the IC50 came out at 0.7 nM. The figure for `COc1ccc(S(=O)(=O)N[C@H]2CCOC2)cc1C(=O)Nc1ccccc1C` [Compound 163, (S)-2-Methoxy-5-(N-(tetrahydrofuran-3-yl)sulfamoyl)-N-(o-tolyl)benzamide] is 0.9 nM.

`COc1ccc(S(=O)(=O)N[C@H]2CCOC2)cc1C(=O)Nc1ccc(F)c(C2CC2)n1` [Compound 162, (S)—N-(6-Cyclopropyl-5-fluoropyridin-2-yl)-2-methoxy-5-(N-(tetrahydrofuran-3-yl)sulfamoyl)benzamide]: the IC50 is 0.5 nM.

For the compound `COC[C@@H](C)NS(=O)(=O)c1ccc(OC)c(C(=O)Nc2ccc(F)cc2)c1` (single isomer, unassigned) [Compound 40b, (R*)—N-(4-Fluorophenyl)-2-methoxy-5-(N-(1-methoxypropan-2-yl)sulfamoyl) benzamide], the IC50 amounted to 9.5 nM. Under `COc1ccc(S(=O)(=O)N[C@H]2CCOC2)cc1C(=O)Nc1ncc(F)cn1` [Compound 117, (S)—N-(5-Fluoropyrimidin-2-yl)-2-methoxy-5-(N-(tetrahydrofuran-3-yl)sulfamoyl)benzamide] stands 64 nM; under `COc1ccc(S(=O)(=O)N[C@H]2CCOC2)cc1C(=O)Nc1ncc(Cl)cc1F` [Compound 120, (S)—N-(5-Chloro-3-fluoropyridin-2-yl)-2-methoxy-5-(N-(tetrahydrofuran-3-yl)sulfamoyl)benzamide], 50 nM; under `[2H]C([2H])([2H])Oc1ccc(S(=O)(=O)N[C@H]2CCOC2)cc1C(=O)Nc1ccc(F)c(C2CC2)n1` [Compound 195, (S)—N-(6-cyclopropyl-5-fluoropyridin-2-yl)-2-(methoxy-d3)-5-(N-(tetrahydrofuran-3-yl)sulfamoyl)benzamide], 0.9 nM.

As to `COc1ccc(S(=O)(=O)N2CCCC2)cc1C(=O)Nc1ccc(F)c(C)n1` [Compound 30, N-(5-Fluoro-6-methylpyridin-2-yl)-2-methoxy-5-(pyrrolidin-1-ylsulfonyl) benzamide], the IC50 was 24 nM.
